Test results from PubChem BioAssay (NCI).
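A five-concentration, 48-hour dose response in 96-well plates underlies each endpoint, interpolated linearly between surrounding concentrations. TGI marks complete inhibition of growth.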 Where a SMILES comes first, the peptide text is derived from it. [ ]: non-standard residue; d: D form. ΔPro = O=C(O)[CH]1C=CCN1

Key:
Test in all cases: NCI-60 cell line screen, 48 h
RXF 393 renal = test system: RXF 393 renal
SF-295 CNS = test system: SF-295 CNS
NCI/ADR-RES ovarian = test system: NCI/ADR-RES ovarian
HCT-116 colon = test system: HCT-116 colon
SNB-75 CNS = test system: SNB-75 CNS
MCF7 breast = test system: MCF7 breast
UACC-62 melanoma = test system: UACC-62 melanoma
HL-60(TB) leukemia = test system: HL-60(TB) leukemia
786-0 renal = test system: 786-0 renal
IGROV1 ovarian = test system: IGROV1 ovarian
BT-549 breast = test system: BT-549 breast
ACHN renal = test system: ACHN renal
NCI-H522 lung = test system: NCI-H522 lung
U251 CNS = test system: U251 CNS
RPMI-8226 leukemia = test system: RPMI-8226 leukemia

Row | SMILES | TGI (RXF 393 renal) [µM] | TGI (SF-295 CNS) [µM] | TGI (NCI/ADR-RES ovarian) [µM] | TGI (HCT-116 colon) [µM] | TGI (SNB-75 CNS) [µM] | TGI (MCF7 breast) [µM] | TGI (UACC-62 melanoma) [µM] | TGI (HL-60(TB) leukemia) [µM] | TGI (786-0 renal) [µM] | TGI (IGROV1 ovarian) [µM] | TGI (BT-549 breast) [µM] | TGI (ACHN renal) [µM] | TGI (NCI-H522 lung) [µM] | TGI (U251 CNS) [µM] | TGI (RPMI-8226 leukemia) [µM]
1 | CCO/C(O)=C(/C(=N)N1CCOCC1)C(=O)NC(C)C | > 100 | > 100 | > 100 | > 100 | > 100 | > 100 | > 100 | > 100 | > 100 | > 100 | > 100 | > 100 | > 100 | > 100 | > 100
2 | O=C(O)C1C=CCN1C(=O)C1C=CCN1C(=O)C1C=CCN1 (stereo not given) (H-[ΔPro]-[ΔPro]-[ΔPro]-OH; configuration not given here) | > 100 | > 100 | > 100 | > 100 | > 100 | > 100 | > 100 | > 100 | > 100 | > 100 | > 100 | > 100 | > 100 | > 100 | > 100
3 | c1ccc2sc(SSSc3nc4ccccc4s3)nc2c1 | > 100 | > 100 | > 100 | > 100 | > 100 | > 100 | > 100 | > 100 | > 100 | > 100 | > 100 | > 100 | > 100 | > 100 | > 100
4 | [N-]=[N+]=NC1C(O)C(CO)OC1n1ccc(N)nc1=O (stereo not given) | > 602 | > 625 | > 625 | > 625 | > 625 | > 625 | 350 | 25.3 | > 625 | > 625 | > 625 | > 625 | > 625 | > 625 | > 625
5 | CC(=O)NS(=O)(=O)c1ccc(NCc2cccc3c(=O)c4ccc(Cl)cc4oc23)cc1 | 78.9 | > 100 | > 80.7 | > 100 | > 100 | > 100 | > 100 | 5.43 | > 100 | > 100 | > 100 | > 100 | > 83.8 | > 100 | > 100
6 | CN(C)[C@@H]1C(=O)C(C(=O)NCNc2nc3n[nH]nc3c(=O)[nH]2)=C(O)[C@@]2(O)C(=O)C3=C(O)c4c(O)cccc4[C@@](C)(O)[C@H]3C[C@@H]12 | 5.37 | > 100 | > 100 | 24.7 | > 95.8 | > 100 | 7.59 | 11.6 | > 100 | > 100 | > 100 | > 100 | > 80.3 | > 61.3 | 6.7
7 | N#Cc1c(Cl)cc(C#N)n2c1nc1ccccc12 | 28.7 | 30.1 | 42.4 | 12.8 | 38.7 | 24.9 | 38.4 | 3.03 | 7.08 | 28.3 | 18.4 | 28.7 | 5.69 | 36 | 17.2
8 | COC(=O)[C@@H]1C[C@@H](O)CN1C(=O)c1ccc([N+](=O)[O-])cc1[N+](=O)[O-] | > 100 | > 100 | > 100 | > 100 | > 100 | > 100 | > 100 | > 100 | > 100 | > 100 | > 100 | > 100 | > 100 | > 100 | > 100
9 | CC1=NN(c2ccc(S(=O)(=O)O)cc2)C2(C1)C(Cl)C(=O)N2c1nc2ccccc2s1 (stereo not given) | > 100 | > 100 | > 100 | > 100 | > 100 | > 100 | > 100 | > 100 | > 100 | > 100 | > 100 | > 100 | > 100 | > 100 | > 100
10 | O=C1C=C(c2ccccc2)OC1C1Sc2ccccc2NC1=O (stereo not given) | > 94.4 | 27 | > 80.9 | 24.6 | 50.3 | > 23.6 | > 49.3 | 13.6 | > 66.3 | > 100 | > 100 | > 62.6 | 33.8 | > 43.3 | 12.5
11 | CSC1=NN(C(C)=O)C(C(OC(C)=O)C(OC(C)=O)C(OC(C)=O)C(COC(C)=O)OC(C)=O)S1 (stereo not given) | > 100 | > 100 | > 100 | > 100 | > 100 | > 100 | > 100 | > 100 | > 100 | > 100 | > 100 | > 100 | > 100 | > 100 | > 100
12 | O=C1Nc2ccc(Br)cc2/C1=N/S(=O)(=O)O | > 100 | > 100 | > 100 | > 100 | > 100 | 40 | 40.3 | 46.7 | 68.2 | > 100 | > 100 | > 100 | > 100 | > 100 | 47.6
13 | Cn1nnc2c(C(N)=S)ncn2c1=O | > 100 | > 100 | > 100 | > 100 | > 100 | > 100 | > 100 | > 100 | > 100 | > 100 | > 100 | > 100 | > 100 | > 100 | > 100
14 | C=C1N(S(=O)(=O)c2ccc(C)cc2)C(=O)OCC12CCCC2 | > 100 | > 100 | > 100 | > 100 | 62.6 | > 100 | > 100 | > 100 | > 100 | > 100 | > 100 | > 100 | > 100 | > 100 | > 100
